Test results taken from the supplement of paper PMC10307832.

Legend:
Experiment in all cases: relative viability (nuclei count vs DMSO), 5 days (fraction); higher = more cells survive
[1] = compound: CCN1C(=O)C2=CC(=C(N=C2N(C1=O)C3CC3)N)C(=O)N + CC(=O)Nc1cccc(-n2c(=O)n(C3CC3)c(=O)c3c(Nc4ccc(I)cc4F)n(C)c(=O)c(C)c32)c1 [Trametinib] (partner 0.02 µM)
Procedure, shortened: (§1)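 Dosing by pin tool came one day after lung cancer cell lines were seeded in 1536-well plates, using either one drug or a fixed anchor-drug dose plus five library-drug doses (not always all listed) in √10 steps. After 5 days, nuclei were counted on 4× images. Relative viability is treated-well nuclei count divided by vehicle-well nuclei count, and values are medians of duplicate plates.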

[2] = compound: CCN1C(=O)C2=CC(=C(N=C2N(C1=O)C3CC3)N)C(=O)N + CC(=O)c1c(C)c2cnc(Nc3ccc(N4CCNCC4)cn3)nc2n(C2CCCC2)c1=O [Palbociclib] (partner 0.5 µM)
Procedure, shortened: as §1

[3] = compound: CCN1C(=O)C2=CC(=C(N=C2N(C1=O)C3CC3)N)C(=O)N + Cc1cc(Nc2cc(N3CCN(C)CC3)nc(Sc3ccc(NC(=O)C4CC4)cc3)n2)n[nH]1 [Tozasertib] (partner 0.1 µM)
Procedure, shortened: as §1

[4] = compound: CCN1C(=O)C2=CC(=C(N=C2N(C1=O)C3CC3)N)C(=O)N + Cc1nc(Nc2ncc(C(=O)Nc3c(C)cccc3Cl)s2)cc(N2CCN(CCO)CC2)n1 [Dasatinib] (partner 0.075 µM)
Procedure, shortened: as §1

[5] = compound: CCN1C(=O)C2=CC(=C(N=C2N(C1=O)C3CC3)N)C(=O)N + NC(=O)Nc1cc(-c2cccc(F)c2)sc1C(=O)N[C@H]1CCCNC1 [AZD7762] (partner 0.2 µM)
Procedure, shortened: as §1

Cell Line | relative viability ([1]; first compound 0.253 µM) | relative viability ([1]; first compound 0.8 µM) | relative viability ([1]; first compound 2.53 µM) | relative viability ([1]; first compound 8 µM) | relative viability ([2]; first compound 0.253 µM) | relative viability ([2]; first compound 0.8 µM) | relative viability ([2]; first compound 2.53 µM) | relative viability ([2]; first compound 8 µM) | relative viability ([3]; first compound 0.253 µM) | relative viability ([3]; first compound 0.8 µM) | relative viability ([3]; first compound 2.53 µM) | relative viability ([3]; first compound 8 µM) | relative viability ([4]; first compound 0.253 µM) | relative viability ([4]; first compound 0.8 µM) | relative viability ([4]; first compound 2.53 µM) | relative viability ([4]; first compound 8 µM) | relative viability ([5]; first compound 0.253 µM) | relative viability ([5]; first compound 0.8 µM) | relative viability ([5]; first compound 2.53 µM) | relative viability ([5]; first compound 8 µM)
NCI-H661 | 0.591 | 0.567 | 0.546 | 0.561 | 0.391 | 0.389 | 0.39 | 0.4 | 0.339 | 0.356 | 0.354 | 0.335 | 0.911 | 0.911 | 0.898 | 0.895 | – | – | – | –
NCI-H2023 | 0.587 | 0.61 | 0.503 | 0.589 | 0.438 | 0.39 | 0.313 | 0.382 | 0.402 | 0.32 | 0.241 | 0.233 | 0.629 | 0.478 | 0.546 | 0.55 | – | – | – | –
COR-L 105 | 0.478 | 0.428 | 0.378 | 0.47 | 0.377 | 0.431 | 0.397 | 0.366 | 0.346 | 0.355 | 0.403 | 0.327 | 0.358 | 0.261 | 0.264 | 0.304 | – | – | – | –
NCI-H2228 | 0.37 | 0.597 | 0.359 | 0.594 | 0.73 | 0.683 | 0.866 | 0.811 | 0.205 | 0.189 | 0.233 | 0.162 | 0.505 | 0.467 | 0.508 | 0.55 | – | – | – | –
NCI-H1650 | 0.572 | 0.571 | 0.563 | 0.611 | 0.315 | 0.364 | 0.346 | 0.313 | 0.394 | 0.404 | 0.38 | 0.342 | 0.279 | 0.264 | 0.308 | 0.329 | – | – | – | –
NCI-H1792 | 0.457 | 0.332 | 0.346 | 0.39 | 0.674 | 0.631 | 0.668 | 0.653 | – | – | – | – | 0.763 | 0.826 | 0.879 | 0.567 | 0.779 | 0.624 | 0.693 | 0.508
SK-MES-1 | 0.625 | 0.533 | 0.557 | 0.517 | 0.362 | 0.285 | 0.324 | 0.282 | 0.902 | 0.931 | 0.85 | 0.918 | 0.409 | 0.393 | 0.393 | 0.448 | – | – | – | –
SK-LU-1 | 0.482 | 0.555 | 0.516 | 0.489 | 0.389 | 0.45 | 0.371 | 0.412 | 0.349 | 0.305 | 0.324 | 0.306 | 0.196 | 0.184 | 0.176 | 0.187 | – | – | – | –
NCI-H1563 | – | – | – | – | – | – | – | – | – | – | – | – | 0.467 | 0.41 | 0.46 | 0.422 | – | – | – | –
COR-L23 | 0.581 | 0.584 | 0.591 | 0.592 | 0.355 | 0.334 | 0.322 | 0.266 | 0.197 | 0.183 | 0.164 | 0.161 | 0.573 | 0.562 | 0.456 | 0.531 | – | – | – | –
NCI-H596 | 0.673 | 0.742 | 0.787 | 0.907 | – | – | – | – | 0.968 | 0.944 | 0.69 | 1.1 | 0.625 | 0.569 | 0.519 | 0.548 | 1.12 | 0.998 | 1.26 | 1.24
